Data taken from PubChem BioAssay (NCI).
“And” between values parts separate entries of the source, which are not always exact repeats. Equal entries are not always repeated.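 Method: 48-hour compound exposure of cells in 96-well plates, five concentrations, linear interpolation of endpoints. GI50: concentration for 50% inhibition of growth. Definition used: TGI = concentration required for complete inhibition of growth.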

Key:
Experiment in all cases: DTP human tumour cell line panel, 48 h
[1] = system: 786-0 renal
[2] = system: HCT-116 colon
[3] = system: OVCAR-5 ovarian
[4] = system: RPMI-8226 leukemia
[5] = system: SF-268 CNS
[6] = system: SF-539 CNS
[7] = system: SR leukemia
[8] = system: SW-620 colon
[9] = system: UO-31 renal
[10] = system: NCI-H460 lung

Structure (SMILES) | GI50 [1] | TGI [1] | TGI [2] | TGI [3] | GI50 [4] | TGI [4] | GI50 [5] | TGI [5] | GI50 [6] | TGI [6] | GI50 [7] | TGI [7] | TGI [8] | TGI [9] | GI50 [10] | TGI [10] | GI50 [3] | GI50 [8] | GI50 [9] | GI50 [2]
Cc1nc2c(Br)cc(Br)cc2c(=O)n1-c1ccccc1NC1OCC(O)C(O)C1O (centres undefined) | 45.1 µM and 13.6 µM | > 100 µM and 32.6 µM | 65.7 µM and 40.2 µM | > 100 µM | 28.5 µM and 9.26 µM | > 100 µM and 41.7 µM | 45.1 µM and 5.56 µM | > 100 µM and 34 µM | 48.4 µM and 7.53 µM | > 100 µM and 22.3 µM | 13.2 µM and 6 µM | 41 µM and 13.6 µM | > 100 µM | > 100 µM |  |  |  |  |  | 
N#CCC1(n2cc(-c3ncnc4[nH]ccc34)cn2)CN(C2CCN(C(=O)c3ccnc(C(F)(F)F)c3F)CC2)C1 | > 100 µM | > 100 µM |  | > 100 µM | 98.2 µM | > 100 µM | > 100 µM | > 100 µM | 37.9 µM | > 100 µM | 51.4 µM | > 100 µM | > 100 µM | > 100 µM | > 100 µM | > 100 µM | > 100 µM | 83.5 µM | 49.2 µM | 
CC(=O)[O-].[Mn+3].[O-]c1ccc(Cl)cc1C=NCCN=Cc1cc(Cl)ccc1[O-] | > 100 µM | > 100 µM | > 100 µM |  |  |  | > 100 µM | > 100 µM | 36 µM | 74.3 µM |  |  |  | > 100 µM | > 100 µM | > 100 µM |  |  | > 100 µM | > 100 µM
COc1ccc(C(=O)O/N=C2/CCCCC2CN(C)C)cc1 (centres undefined) |  | > 100 µM | > 100 µM | > 100 µM |  | > 100 µM |  |  |  | > 100 µM |  | > 100 µM | > 100 µM | > 100 µM |  | > 100 µM |  |  |  | 
O=C(OC[C@@H]1CO1)c1cccc2c(=O)c3ccccc3[nH]c12 | 0.349 µM | 2.69 µM | 10.1 µM | 4.17 µM | 0.33 µM | 1.84 µM | 0.172 µM | 1.01 µM | 0.344 µM | 1.97 µM | 0.0604 µM |  | 1.16 µM |  | 0.38 µM | 1.75 µM | 0.474 µM | 0.0649 µM |  | 0.127 µM
CN(C)c1ccc(O[Si](Oc2ccc(N(C)C)cc2)(Oc2ccc(N(C)C)cc2)Oc2ccc(N(C)C)cc2)cc1 |  | > 100 µM | > 100 µM | > 100 µM |  | > 100 µM |  | > 100 µM |  | > 100 µM |  | > 100 µM | > 100 µM | > 100 µM |  |  |  |  |  | 
O=C(/C=C(\[O-])c1ccccc1)CCCCCCC(=O)/C=C(\[O-])c1ccccc1.O=C(/C=C(\[O-])c1ccccc1)CCCCCCC(=O)/C=C(\[O-])c1ccccc1.O=C(/C=C(\[O-])c1ccccc1)CCCCCCC(=O)/C=C(\[O-])c1ccccc1.[Nd+3].[Nd+3] | > 50 µM | > 50 µM | > 50 µM | > 50 µM | 43.2 µM | > 50 µM | > 50 µM | > 50 µM | > 50 µM | > 50 µM |  |  | > 50 µM | > 50 µM | > 50 µM | > 50 µM | > 50 µM | > 50 µM | > 50 µM | > 50 µM
COc1ccc(Cc2nc3cc(OC)c(OC)cc3c(=O)[nH]2)cc1 | 7.31 µM | > 100 µM | > 100 µM | > 74.1 µM | 4.05 µM | > 100 µM | 3.52 µM | > 45.6 µM | 7.97 µM | 39.7 µM |  |  | > 63.5 µM | > 100 µM | 15.3 µM | > 100 µM | 3.74 µM | 3.32 µM | 4.66 µM | 4.78 µM
[Cl-].[Gd+3].[O-]/N=C(\c1ccccc1)c1ccccn1.[O-]/N=C(\c1ccccc1)c1ccccn1.[O-]/N=C(\c1ccccc1)c1ccccn1 | 57.8 µM | > 100 µM | > 100 µM | > 100 µM | > 100 µM | > 100 µM | 55.6 µM | > 100 µM | > 100 µM | > 100 µM |  |  | > 100 µM | > 100 µM | 50.7 µM | > 100 µM | 67.7 µM | 41.7 µM | 35.3 µM | 49.3 µM
COc1cc2cc3c(c(O)c2c(O)c1-c1c(OC)cc2cc4c(c(O)c2c1O)C(=O)O[C@H](C)C4)C(=O)O[C@H](C)C3 | 21.1 µM | 64.8 µM | 43 µM | > 100 µM |  |  | 14.1 µM | 37.9 µM |  |  | 70.6 µM | > 100 µM | > 100 µM | > 100 µM | 16.8 µM | 56.8 µM | 94.2 µM | 77.1 µM | > 100 µM | 20.3 µM
COc1cc(CCc2ccc(OC(C)=O)cc2)cc(OC)c1OC |  | > 100 µM | > 100 µM | > 100 µM |  | > 100 µM |  | > 100 µM |  | > 100 µM |  |  | > 100 µM | > 100 µM |  | > 100 µM |  |  |  | 
NC(N)=N/N=C/c1c(-c2ccc(Cl)c([N+](=O)[O-])c2)nc2sc3ccccc3n12 | 0.951 µM | 1.75 µM | 8.97 µM | 1.44 µM |  |  |  |  |  |  |  |  |  | > 50 µM |  |  | 0.773 µM |  | 23.6 µM | 0.02 µM
C=C1CC/C=C(\C)CC[C@H](C(=C)C)[C@@H](O)/C=C(/CO)CCC1O (some centres undefined) | > 100 µM | > 100 µM | > 100 µM | > 100 µM | 32 µM | 71.6 µM | 78.4 µM | > 100 µM | > 100 µM | > 100 µM |  |  | > 100 µM | > 100 µM | 54.8 µM | > 100 µM | > 100 µM | 72.8 µM | 62.2 µM | 35.4 µM
COc1ccc(-c2cc(-c3ccccc3)nc(NCCNc3ccnc4cc(Cl)ccc34)n2)cc1 | 1.72 µM | 3.35 µM |  | 3.3 µM |  |  | 1.78 µM | 3.62 µM | 1.86 µM | 3.33 µM | 0.435 µM | > 100 µM | 2.99 µM | 2.93 µM | 1.92 µM | 3.72 µM | 1.76 µM | 1.32 µM | 1.42 µM | 
COc1ccc(-c2cc(-c3ccco3)c(C#N)c(=O)[nH]2)cc1 |  | > 100 µM | > 100 µM | > 100 µM |  | > 100 µM |  | > 100 µM |  | 53.9 µM |  |  | > 100 µM | > 100 µM |  | > 100 µM |  |  |  | 
